According to ChEMBL document CHEMBL3885861, “Open TG-GATES”:

Organism: Rattus norvegicus
Experiment: Open TG-GATES - Regimen: Daily Repeat
Assay type: toxicity, organism-based, Sprague-Dawley
Set-up: regimen Daily Repeat, gender Male, age 6 weeks
Settings: in vivo, po, 0 mg/kg, route gavage, dose level Control; for APTT / Bas / Eos / Fbg / Hb / Ht / Lym / MCH / MCHC / MCV / Mono / Neu / PT / Plat / RBC / Ret / WBC: tissue Blood; for KIDNEY_L / KIDNEY_R / KIDNEY_TOTAL: tissue Kidney; for LIVER: tissue Liver; for A/G / ALP / ALT / AST / BUN / CRE / Ca / Cl / DBIL / GLC / IP / K / LDH / Na / PL / RALB / TBIL / TC / TG / TP / gamma-GTP: tissue Plasma

## Nc1c2c(nc3ccccc13)CCCC2 [TACRINE]
72 h, time 3 day
  TERMINAL_BW: 222.7 g
  APTT: 21.1 s
  Bas: 0%
  Eos: 1.2%
  Fbg: 304 mg/dL
  Hb: 13.6 g/dL
  Ht: 38.7%
  Lym: 80%
  MCH: 21.1 pg
  MCHC: 35%
  MCV: 60.4 fL
  Mono: 3%
  Neu: 14.8%
  PT: 16.8 s
  Plat: 125.8 x10_4/uL
  RBC: 641.8 x10_4/ul
  Ret: 6.4%
  WBC: 108.4 x10_2/uL
  KIDNEY_L: 0.9 g
  KIDNEY_R: 1 g
  KIDNEY_TOTAL: 1.9 g
  LIVER: 10.2 g
  A/G: 1.3
  ALP: 1665.8 IU/L
  ALT: 51.6 IU/L
  AST: 79 IU/L
  BUN: 17.4 mg/dL
  CRE: 0.2 mg/dL
  Ca: 10.9 mg/dL
  Cl: 107.2 meq/L
  DBIL: 0.002 mg/dL
  GLC: 200.2 mg/dL
  IP: 7.4 mg/dL
  K: 4.4 meq/L
  LDH: 264 IU/L
  Na: 142.8 meq/L
  PL: 158.4 mg/dL
  RALB: 3.1 g/dL
  TBIL: 0.01 mg/dL
  TC: 72.8 mg/dL
  TG: 132.8 mg/dL
  TP: 5.6 g/dL
  gamma-GTP: 1 IU/L
[…], time 7 day
  TERMINAL_BW: 252.2 g
  APTT: 21.6 s
  Bas: 0%
  Eos: 1%
  Fbg: 289 mg/dL
  Hb: 13.5 g/dL
  Ht: 38.4%
  Lym: 85%
  MCH: 21.2 pg
  MCHC: 35.2%
  MCV: 60.1 fL
  Mono: 2.2%
  Neu: 11%
  PT: 16.3 s
  Plat: 122.6 x10_4/uL
  RBC: 639.4 x10_4/ul
  Ret: 5.5%
  WBC: 142.5 x10_2/uL
  KIDNEY_L: 1.1 g
  KIDNEY_R: 1.1 g
  KIDNEY_TOTAL: 2.1 g
  LIVER: 11.2 g
  A/G: 1.2
  ALP: 1508 IU/L
  ALT: 36 IU/L
  AST: 67.6 IU/L
  BUN: 16.8 mg/dL
  CRE: 0.2 mg/dL
  Ca: 10.5 mg/dL
  Cl: 107.4 meq/L
  DBIL: 0 mg/dL
  GLC: 191.6 mg/dL
  IP: 7.1 mg/dL
  K: 4.2 meq/L
  LDH: 172.8 IU/L
  Na: 142 meq/L
  PL: 153.8 mg/dL
  RALB: 2.9 g/dL
  TBIL: 0.016 mg/dL
  TC: 77.6 mg/dL
  TG: 110 mg/dL
  TP: 5.4 g/dL
  gamma-GTP: 1 IU/L
[…], time 14 day
  TERMINAL_BW: 300.3 g
  APTT: 23 s
  Bas: 0%
  Eos: 0.8%
  Fbg: 323 mg/dL
  Hb: 15.4 g/dL
  Ht: 42.9%
  Lym: 79.6%
  MCH: 21.2 pg
  MCHC: 36%
  MCV: 58.8 fL
  Mono: 2.6%
  Neu: 16.4%
  PT: 15.6 s
  Plat: 117.8 x10_4/uL
  RBC: 728.8 x10_4/ul
  Ret: 4%
  WBC: 91.1 x10_2/uL
  KIDNEY_L: 1.2 g
  KIDNEY_R: 1.2 g
  KIDNEY_TOTAL: 2.3 g
  LIVER: 12.4 g
  A/G: 1.3
  ALP: 1565.4 IU/L
  ALT: 40 IU/L
  AST: 72 IU/L
  BUN: 20.6 mg/dL
  CRE: 0.2 mg/dL
  Ca: 10.7 mg/dL
  Cl: 108 meq/L
  DBIL: 0 mg/dL
  GLC: 192.8 mg/dL
  IP: 6.3 mg/dL
  K: 4.1 meq/L
  LDH: 184.8 IU/L
  Na: 142.2 meq/L
  PL: 161.6 mg/dL
  RALB: 3.3 g/dL
  TBIL: 0.012 mg/dL
  TC: 81.8 mg/dL
  TG: 123.4 mg/dL
  TP: 6 g/dL
  gamma-GTP: 1.2 IU/L
[…], time 28 day
  TERMINAL_BW: 378.9 g
  APTT: 23.1 s
  Bas: 0%
  Eos: 1%
  Fbg: 321 mg/dL
  Hb: 15.6 g/dL
  Ht: 41.5%
  Lym: 83.4%
  MCH: 20.8 pg
  MCHC: 37.6%
  MCV: 55.3 fL
  Mono: 1.6%
  Neu: 13%
  PT: 16 s
  Plat: 115 x10_4/uL
  RBC: 752 x10_4/ul
  Ret: 2.9%
  WBC: 108.3 x10_2/uL
  KIDNEY_L: 1.4 g
  KIDNEY_R: 1.4 g
  KIDNEY_TOTAL: 2.9 g
  LIVER: 15.5 g
  A/G: 1.1
  ALP: 1179.4 IU/L
  ALT: 38.6 IU/L
  AST: 61.6 IU/L
  BUN: 18.6 mg/dL
  CRE: 0.2 mg/dL
  Ca: 10.7 mg/dL
  Cl: 105.2 meq/L
  DBIL: 0 mg/dL
  GLC: 191.8 mg/dL
  IP: 5.9 mg/dL
  K: 4.1 meq/L
  LDH: 165.2 IU/L
  Na: 141.6 meq/L
  PL: 157.6 mg/dL
  RALB: 3.2 g/dL
  TBIL: 0.006 mg/dL
  TC: 75.4 mg/dL
  TG: 144.6 mg/dL
  TP: 6.2 g/dL
  gamma-GTP: 1 IU/L
